Experimental data as given in paper PMC7808659, “Lotus japonicus karrikin receptors display divergent ligand-binding specificities and organ-dependent redundancy” (PLoS Genetics, 2020).

Experiments:
[1] = biological target: LjKAI2b (Lotus japonicus, UniProt I3S3D1, W158F/M161L/L191S); experiment: differential scanning fluorimetry; intrinsic tryptophan fluorescence; assay type: binding; conditions: SYPRO Tangerine; shift from 25 uM
Excerpt: differential scanning fluorimetry; intrinsic tryptophan fluorescence on LjKAI2b | LjKAI2b^[…],[…],F158 gained a strong response to GR24^ent-5DS

[2] = biological target: LjKAI2b (Lotus japonicus, UniProt I3S3D1, W158F); experiment: as above; assay type: binding; conditions: SYPRO Tangerine; response like wild-type LjKAI2a
LjKAI2b (Lotus japonicus, UniProt I3S3D1, W158F), sequence (I3S3D1 entry or part of it W158F): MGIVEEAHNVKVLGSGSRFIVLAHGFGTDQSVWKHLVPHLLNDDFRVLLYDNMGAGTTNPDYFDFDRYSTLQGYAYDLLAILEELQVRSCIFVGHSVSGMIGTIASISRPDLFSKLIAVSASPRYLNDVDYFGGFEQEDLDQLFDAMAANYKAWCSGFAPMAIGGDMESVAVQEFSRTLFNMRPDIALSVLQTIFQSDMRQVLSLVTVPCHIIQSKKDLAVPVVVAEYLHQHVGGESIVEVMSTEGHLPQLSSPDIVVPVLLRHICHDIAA

LjKAI2b (Lotus japonicus, UniProt I3S3D1, W158F/M161L/L191S), sequence (I3S3D1 entry or part of it W158F/M161L/L191S): as the sequence (I3S3D1 entry or part of it W158F) above, with M161L, L191S counted along it

CC1=C[C@@H](O/C=C2/C(=O)O[C@H]3c4ccccc4C[C@@H]23)OC1=O (racemic) [GR24^ent-5DS]
differential scanning fluorimetry; intrinsic tryptophan fluorescence [1]: LjKAI2b^L161,S191,F158 gained a strong response to GR24^ent-5DS
differential scanning fluorimetry; intrinsic tryptophan fluorescence [2]: LjKAI2b^F158 recapitulated the response of LjKAI2a to GR24^ent-5DS
